Assay results from the supplement of paper PMC10627819.

Key:
B. subtilis 168 [1] = assay: fitness (endpoint OD595 vs no drug) (fraction); higher = more growth
In short: (§1)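 Bacterial growth was followed in 384-well plates seeded at OD595 0.01, with 30 µl per well, or 55 µl for S. pneumoniae, in TSB, LB Lennox or CY at 37 °C. OD595 was read every 30 min for 14 h, and each reading had the first reading subtracted as background. Fitness is the background-corrected optical density at entry into stationary phase divided by the robust mean of the no-drug control wells. This ratio is capped at 1.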

B. subtilis 168 [2] = assay: Bliss interaction score (quartile over a dose matrix) (fitness difference); higher = more antagonism (negative = synergy)
In short: (§2)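 Fitness was derived from optical density at entry into stationary phase, divided by the robust mean of the no-drug wells on the same plate. That reading was taken as OD595, and the ratio was capped at 1. Single-drug fitness was inferred from the combination data. The Bliss score, observed fitness minus the expected product of single-drug fitness, was summarised as quartiles over technical, biological and donor/recipient replicates.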

S. aureus DSM 20231 = assay: as above
In short: as §2

S. aureus Newman = assay: as above
In short: as §2

S. pneumoniae D39V [3] = assay: as above
In short: as §2

S. pneumoniae D39V [4] = assay: fitness (endpoint OD595 vs no drug) (fraction); higher = more growth
In short: as §1
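Wherever Bliss interaction score (quartile over a dose matrix) is given: first quartile when negative (synergy) and third quartile when positive (antagonism).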

COc1c(N2C[C@@H]3CCCN[C@@H]3C2)c(F)cc2c(=O)c(C(=O)O)cn(C3CC3)c12 [Moxifloxacin] + CO[C@@H]1[C@@H](OC(N)=O)[C@@H](O)[C@H](Oc2ccc3c(O)c(NC(=O)c4ccc(O)c(CC=C(C)C)c4)c(=O)oc3c2C)OC1(C)C [Novobiocin]
fitness, B. subtilis 168 [1]
Details	first compound 0.0312 µg/mL	first compound 0.0625 µg/mL	first compound 0.125 µg/mL	first compound 2 µg/mL	first compound 4 µg/mL	first compound 8 µg/mL
partner 0.0125 µg/mL	–	–	–	0.0294	0.0275	0.0124
partner 0.025 µg/mL	–	–	–	0.016	0.0146	0.0125
partner 0.05 µg/mL	0.0425	0.0373	0.0299	0.0168	0.0053	0.0129
partner 0.1 µg/mL	0.0335	0.0227	0.0176	–	–	–
partner 0.2 µg/mL	0.0331	0.0211	0.0159	–	–	–

fitness, B. subtilis 168 [1], one replicate
Details	first compound 0.0312 µg/mL	first compound 0.0625 µg/mL	first compound 0.125 µg/mL
partner 0.125 µg/mL	0.0427	0.0166	0.0119
partner 0.25 µg/mL	0.0377	0.0432	0.0101
partner 0.5 µg/mL	0.0342	0.0161	0.011

Details	Bliss interaction score
B. subtilis 168 [2]	-0.0346
S. aureus DSM 20231	-0.0723
S. aureus Newman	-0.113
S. pneumoniae D39V [3]	0.0943

O=C1CN(/N=C/c2ccc([N+](=O)[O-])o2)C(=O)N1 [Nitrofurantoin] + CN(N=O)C(=O)N[C@@H](C=O)[C@@H](O)[C@H](O)[C@H](O)CO [Streptozotocin]
fitness, S. pneumoniae D39V [4]
Details	partner 1.2 µg/mL	partner 2.4 µg/mL	partner 4.8 µg/mL
first compound 1.285 µg/mL	0.928	0.94	0.939
first compound 2.57 µg/mL	0.939	0.952	0.957

fitness, S. pneumoniae D39V [4], one replicate
Details	first compound 2 µg/mL	first compound 4 µg/mL	first compound 5.14 µg/mL	first compound 8 µg/mL
partner 1.2 µg/mL	0.954	0.959	0.86	0.818
partner 2.4 µg/mL	0.961	≥ 1	0.919	0.842
partner 4.8 µg/mL	≥ 1	≥ 1	0.871	≥ 1

Details	Bliss interaction score
B. subtilis 168 [2]	0.0585
S. aureus DSM 20231	-0.034
S. aureus Newman	0.0906
S. pneumoniae D39V [3]	0.0714

O=C1CN(/N=C/c2ccc([N+](=O)[O-])o2)C(=O)N1 [Nitrofurantoin] + CN[C@@H]1[C@H](O)[C@H](NC)[C@H]2O[C@@]3(O)C(=O)C[C@@H](C)O[C@H]3O[C@@H]2[C@H]1O [Spectinomycin]
fitness, S. pneumoniae D39V [4]
Details	partner 4 µg/mL	partner 8 µg/mL	partner 16 µg/mL
first compound 1.285 µg/mL	0.96	0.889	0.829
first compound 2.57 µg/mL	0.935	0.917	0.829

fitness, S. pneumoniae D39V [4], one replicate
Details	first compound 2 µg/mL	first compound 4 µg/mL	first compound 5.14 µg/mL	first compound 8 µg/mL
partner 4 µg/mL	0.966	0.948	0.859	0.895
partner 8 µg/mL	0.892	0.864	0.865	0.879
partner 16 µg/mL	–	–	0.793	–

Details	Bliss interaction score
B. subtilis 168 [2]	-0.0552
S. aureus DSM 20231	-0.0743
S. aureus Newman	-0.0511
S. pneumoniae D39V [3]	0.0652

O=C1CN(/N=C/c2ccc([N+](=O)[O-])o2)C(=O)N1 [Nitrofurantoin] + CN[C@@H]1[C@H](O[C@H]2[C@H](O[C@H]3[C@H](O)[C@@H](O)[C@H](N=C(N)N)[C@@H](O)[C@@H]3N=C(N)N)O[C@@H](C)[C@]2(O)C=O)O[C@@H](CO)[C@H](O)[C@H]1O [Streptomycin]
fitness, S. pneumoniae D39V [4]
Details	first compound 1.285 µg/mL	first compound 2 µg/mL	first compound 2.57 µg/mL	first compound 4 µg/mL	first compound 8 µg/mL
partner 2 µg/mL	0.956	–	0.938	–	–
partner 4 µg/mL	0.953	0.956	0.921	0.936	0.768
partner 8 µg/mL	0.927	0.884	0.918	0.887	0.743

fitness, S. pneumoniae D39V [4], one replicate
Details	first compound 2 µg/mL	first compound 4 µg/mL	first compound 5.14 µg/mL	first compound 8 µg/mL
partner 2 µg/mL	0.965	0.948	0.86	0.76
partner 4 µg/mL	–	–	0.8	–
partner 8 µg/mL	–	–	0.809	–
partner 16 µg/mL	0.743	0.753	–	0.585

Details	Bliss interaction score
B. subtilis 168 [2]	-0.0807
S. aureus DSM 20231	-0.0532
S. aureus Newman	-0.0496
S. pneumoniae D39V [3]	0.0583

O=C1CN(/N=C/c2ccc([N+](=O)[O-])o2)C(=O)N1 [Nitrofurantoin] + CN[C@H](CC(C)C)C(=O)N[C@H]1C(=O)N[C@@H](CC(N)=O)C(=O)N[C@H]2C(=O)N[C@H]3C(=O)N[C@H](C(=O)N[C@H](C(=O)O)c4cc(O)cc(O)c4-c4cc3ccc4O)[C@H](O)c3ccc(c(Cl)c3)Oc3cc2cc(c3O[C@@H]2O[C@H](CO)[C@@H](O)[C@H](O)[C@H]2O[C@H]2C[C@](C)(N)[C@H](O)[C@H](C)O2)Oc2ccc(cc2Cl)[C@H]1O [Vancomycin]
fitness, S. pneumoniae D39V [4]
Details	first compound 1.285 µg/mL	first compound 2 µg/mL	first compound 2.57 µg/mL	first compound 4 µg/mL	first compound 8 µg/mL
partner 0.03125 µg/mL	–	0.926	–	0.959	0.892
partner 0.0625 µg/mL	–	0.882	–	0.959	0.894
partner 0.125 µg/mL	0.969	0.748	0.973	0.851	–
partner 0.25 µg/mL	0.611	–	0.653	–	–
partner 0.5 µg/mL	0.0954	–	0.0768	–	–

S. pneumoniae D39V [4], first compound 5.14 µg/mL, one replicate
Details	fitness
partner 0.125 µg/mL	0.965
partner 0.25 µg/mL	0.446
partner 0.5 µg/mL	0.118

Details	Bliss interaction score
B. subtilis 168 [2]	0.0308
S. aureus DSM 20231	0.0253
S. aureus Newman	0.0534
S. pneumoniae D39V [3]	0.142

O=C1CN(/N=C/c2ccc([N+](=O)[O-])o2)C(=O)N1 [Nitrofurantoin] + CO[C@H]1/C=C/O[C@@]2(C)Oc3c(C)c(O)c4c(O)c(c(/C=N/N5CCN(C)CC5)c(O)c4c3C2=O)NC(=O)/C(C)=C\C=C\[C@H](C)[C@H](O)[C@@H](C)[C@@H](O)[C@@H](C)[C@H](OC(C)=O)[C@@H]1C [Rifampicin]
fitness, S. pneumoniae D39V [4]
Details	first compound 1.285 µg/mL	first compound 2 µg/mL	first compound 2.57 µg/mL	first compound 4 µg/mL	first compound 8 µg/mL
partner 0.05 µg/mL	0.825	0.789	0.798	0.781	0.668
partner 0.1 µg/mL	0.372	–	0.353	–	0.351
partner 0.2 µg/mL	0.129	–	0.166	–	–

fitness, S. pneumoniae D39V [4], one replicate
Details	first compound 2 µg/mL	first compound 4 µg/mL	first compound 5.14 µg/mL	first compound 8 µg/mL
partner 0.025 µg/mL	0.873	0.85	–	0.782
partner 0.05 µg/mL	–	–	0.806	–
partner 0.1 µg/mL	–	–	0.369	–
partner 0.2 µg/mL	0	0	0.171	0

Details	Bliss interaction score
B. subtilis 168 [2]	-0.0448
S. aureus DSM 20231	-0.0228
S. aureus Newman	-0.0316
S. pneumoniae D39V [3]	-0.117
